Values joined by “and” are separate entries in the source; they are usually repeats but may differ in a detail not shown here. Equal entries are not always repeated. One block for each compound: values may come before it.
Assays:
Format in all cases: physicochemical
[1] = 2,6-dimethylaniline standard in clear, amber and red glassware, HPLC with electrochemical detection
Experimental: A series of experiments was conducted examining the effects of amber and red colored glassware on the stability of the 2,6-dimethylaniline reference standard, using electrochemical detection, at a concentration of 3 ng/mL in an aqueous buffer/methanol solution.
In Experiment 1, the 2,6-dimethylaniline was prepared at a concentration of 3 ng/mL in a clear, colorless glass 100 mL volumetric flask. Aliquots were transferred into clear HPLC glass vials, and assayed against external standards. The 3 injections of the 2,6-dimethylaniline were consistently near 3 ng/mL.
In Experiment 2, the 2,6-dimethylaniline solution at 3 ng/mL prepared in a clear, colorless glass 100 mL volumetric flask was transferred to amber HPLC vials.
An aliquot was transferred into a clear HPLC glass vial, and assayed against external standards. The sample injection had the same 2,6-dimethylaniline concentration value as that in Experiment 1.
In Experiment 4, the 2,6-dimethylaniline solution at 3 ng/mL prepared in the red colored glass 100 mL volumetric flask coated with RAY-SORB® was transferred to an amber HPLC vial.

[2] = Peroxide content of SAIB and benzyl alcohol versus bupivacaine N-oxide
Experimental: The peroxide content for several lots of sucrose acetate isobutyrate were determined by potentiometric titration involving iodometric titration. The bupivacaine N-oxide levels in samples of Formulation A were determined using HPLC with UV detection.
The bupivacaine N-oxide data in Table 10.1 are for the longest available stability time points for each set of samples.
All of the benzyl alcohol compositions had peroxide values of less than […]. The peroxide value can be converted to peroxide content, expressed as hydrogen peroxide, by multiplying PV by 17. […] The maximum contribution to peroxide content from benzyl alcohol is 85 ppm divided by 3, or 28 ppm.

[3] = Metal content by ICP-MS
Experimental: Sucrose acetate isobutyrate was tested for metal content as follows. The sample was prepared with a 0.1 g weighed portion mixed with 2 mL nitric acid and 0.5 mL hydrochloric acid for 1 hour on a block digester set at 110° C. After cooling, 0.5 mL of 30% hydrogen peroxide was added, and the digestion resumed for 30 minutes (the material appeared dissolved). After cooling, internal standard solution was added and dilution with purified water to 20 g produced a solution for ICP-MS analysis.
Formulation A was compounded using steel compounding tanks. Silicone tubing was used to transfer Formulation A. Formulation A was filled into glass vials, which were then sealed with fluorocarbon-coated stoppers.
Formulation A was tested for metal content as follows. The sample was prepared with a 0.2 g weighed portion mixed with 2 mL nitric acid, 1 mL hydrochloric acid, and 1 mL hydrofluoric acid, then digested in a closed-vessel microwave system (the material appeared dissolved). After cooling, internal standard solution was added and dilution with purified water to 50 g produced a solution for ICP-MS analysis.

[4] = In vitro cumulative release of bupivacaine, USP Apparatus II dissolution, f1/f2 comparison; conditions: pre-heated in oven at 225° C. for 4 hours
Experimental: The in vitro cumulative release of bupivacaine from formulations was determined as follows.
The bupivacaine formulations, other than the heat-stressed formulation, were prepared by dissolving appropriate amounts of bupivacaine in appropriate amounts of benzyl alcohol (BA), adding an appropriate amount of sucrose acetate isobutyrate (SAIB), and stirring not less than 45 minutes at about 35° C. For the heat-stressed SAIB formulation, the same process was followed except the SAIB was pre-heated in an oven at 225° C. for 4 hours before use. A portion of the pre-heated SAIB was tested and found to have 98% SAIB remaining.
Dissolution was measured using a USP Apparatus II. Approximately 0.5 mL of each formulation was loaded via cannula and syringed into 900 mL±5 mL of 37±0.5° C. dissolution media (phosphate buffer at pH 7.4±0.05 with 0.03% sodium lauryl sulfate). The USP Apparatus II was set at 50 RPM, and samples were collected at 1, 4, 8, 12, 18, 24, 36, 48, and 72 hours. The number of replicates (N) per sample per time point varied as described above. The collected samples were assayed for bupivacaine content by HPLC.
The dissolution profile comparisons were conducted using a difference factor (f1) and a similarity factor (f2) approach (FDA Guidance for Industry “Dissolution Testing of Immediate Release Solid Oral Dosage Forms” August 1997). […]

Compound: Cc1cccc(C)c1N [2,6-dimethylaniline]
Observed Concentration of Standard ([1]; Experiment 1: clear flask, clear HPLC vial, nominal 3 ng/mL): ~3 ng/mL
Observed Concentration of Standard ([1]; Experiment 1: clear flask, clear HPLC vial, nominal 3 ng/mL, listed as 2,6-Dimethlylaniline Standard): 3.0 ng/mL and 3.1 ng/mL
Observed Concentration of Standard ([1]; Experiment 2: clear flask, amber HPLC vial, listed as 2,6-Dimethlylaniline Standard): 24.5 ng/mL and 28.4 ng/mL and 34.6 ng/mL and 38.1 ng/mL
Observed Concentration of Standard ([1]; Experiment 3: red RAY-SORB flask, clear HPLC vial): 3.0 ng/mL
2,6-dimethylaniline content, times higher than Experiments 1 and 3 ([1]; Experiment 4, amber HPLC vial): approximately 5 times
Observed Concentration of Standard ([1]; Experiment 4: red flask, amber HPLC vial): 14.9 ng/mL

effective peroxide contribution to formation of bupivacaine N-oxide ([2]; 8.5 ppm divided by 3): < 2.8 ppm
peroxide content, expressed as hydrogen peroxide ([2]; PV multiplied by 17): < 8.5 ppm
peroxide value (PV) ([2]; all lots used for Formulation A samples): less than 0.5
Compound: OCc1ccccc1 [benzyl alcohol]

peroxide in SAIB corresponding to 0.8% bupivacaine N-oxide ([2]; linear regression, FIG. 2): 232.5 ppm
peroxide in SAIB corresponding to 1.0% bupivacaine N-oxide ([2]; linear regression, FIG. 2): 296.4 ppm
Gold content ([3]; detection limit 0.02): 0.4 ppm
Tin content ([3]; detection limit 0.04): 0.06 ppm
Iron content ([3]; detection limit 1): 2 ppm
SAIB remaining [4]: 98%
Compound: sucrose acetate isobutyrate [SAIB]

Reference: patent US11400019B2, “Sustained release drug delivery systems with reduced impurities and related methods” (DURECT CORPORATION, priority 2020, dated 2022)
